Usually bioavailability stands for the share of a dose that reaches the circulation, judged against a reference dose that is usually intravenous.

Results on 3 molecules are retold here after ChEMBL document CHEMBL1833811, “Design, synthesis and structure-activity relationship of novel [3.3.1] bicyclic sulfonamide-pyrazoles as potent γ-secretase inhibitors” (Bioorg Med Chem Lett, 2011).

A short description of data set [1]: Ratio of drug uptake in brain to plasma of wild type FVB mouse. Format: ADME. Conditions: brain and plasma, read-out: BPR.
A short description of data set [2]: Oral bioavailability in wild type FVB mouse. In kind it is ADME, organism-based. To be noted: in vivo.

Consider `Cc1noc(C2CC3Cc4[nH]ncc4C(C2)N3S(=O)(=O)c2ccc(Cl)cc2)n1` (single isomer, unassigned), for which, in data set [1], the Kp amounted to 0.08.
As to `O=S(=O)(c1ccc(Cl)cc1)N1C2CCCC1c1cn[nH]c1C2` (single isomer, unassigned), in data set [2], the bioavailability was determined as 2%.
Take `O=S(=O)(c1ccc(C(F)(F)F)nc1)N1C2Cc3[nH]ncc3C1CC(c1ccc(F)cc1)C2` (single isomer, unassigned): the Kp in data set [1] amounted to 0.3.
